Experimental data taken from patent publication US20230190717A1, “P38 GAMMA INHIBITORS AND METHOD OF USE THEREOF” (City of Hope, priority 2017, published 2023).

Key:
Type in all cases: cell-based, human
[1] = tested on: normal CD4+ T cells from healthy donors; assay: Cell viability, healthy CD4+ T cells; conditions: 100 nM
Description: Compound, Samples, and Cell Culture: […] Isolation of PBMCs or CD4^+T cells from both patients and healthy donors and culture of CTCL cell lines (Hut78, HH, and H9) were performed as previously described.

HL60 = assay: NCI-60 cytotoxicity, HL60; conditions: HL60 (AML), 72 h
Description: (§1) Briefly, human NCI-60 cancer cell lines were counted with a Vi-CELL Cell Viability Analyzer (Beckman Coulter), resuspended in RPMI-1640 medium containing 10% FBS and 1% penicillin/streptomycin and dispensed in wells of 96-well microplates (3000 cells per well for solid tumor and 5000 per well for blood tumor cells) using an epMotion 5075 liquid handler (Eppendorf) under a sterile condition, followed by incubation overnight at 37° C. in 5% (v/v) CO2. Cells were exposed to compounds in a dose-dependent manner for 72 h. An MTS dye (20 uL per well) was added to each well. Cell viability was determined by tetrazolium conversion to its […] dye. […] Each experiment was performed in duplicate. […] H9 cells are more sensitive to drugs, therefore instead of 72 hours, we choose 48 hour the incubation time for H9 cells.
(§2) IC50 values were determined using […] software (Biosoft).

MOLT-4 = assay: NCI-60 cytotoxicity, MOLT-4; conditions: MOLT-4 (ALL), 72 h
Description: as §1, §2

CCRF-CEM = assay: NCI-60 cytotoxicity, CCRF-CEM; conditions: CCRF-CEM (Leukemia), 72 h
Description: as §1, §2

NCI-H460 = assay: NCI-60 cytotoxicity, NCI-H460; conditions: NCI-H460 (Lung), 72 h
Description: as §1, §2

HOP-92 = assay: NCI-60 cytotoxicity, HOP-92; conditions: HOP-92 (Lung), 72 h
Description: as §1, §2

NCI-H552 = assay: NCI-60 cytotoxicity, NCI-H552; conditions: NCI-H552 (Lung), 72 h
Description: as §1, §2

HOP-62 = assay: NCI-60 cytotoxicity, HOP-62; conditions: HOP-62 (Lung), 72 h
Description: as §1, §2

EKVX = assay: NCI-60 cytotoxicity, EKVX; conditions: EKVX (Lung), 72 h
Description: as §1, §2

KM12 = assay: NCI-60 cytotoxicity, KM12; conditions: KM12 (Colon), 72 h
Description: as §1, §2

Colo 205 = assay: NCI-60 cytotoxicity, Colo 205; conditions: Colo 205 (Colon), 72 h
Description: as §1, §2

SW-620 = assay: NCI-60 cytotoxicity, SW-620; conditions: SW-620 (Colon), 72 h
Description: as §1, §2

NCI/ADR-RES = assay: NCI-60 cytotoxicity, NCI/ADR-RES; conditions: NCI/ADR-RES (Ovarian), 72 h
Description: as §1, §2

IGR-OV1 = assay: NCI-60 cytotoxicity, IGR-OV1; conditions: IGR-OV1 (Ovarian), 72 h
Description: as §1, §2

OVCAR-4 = assay: NCI-60 cytotoxicity, OVCAR-4; conditions: OVCAR-4 (Ovarian), 72 h
Description: as §1, §2

OVCAR-5 = assay: NCI-60 cytotoxicity, OVCAR-5; conditions: OVCAR-5 (Ovarian), 72 h
Description: as §1, §2

PC-3 = assay: NCI-60 cytotoxicity, PC-3; conditions: PC-3 (Prostate), 72 h
Description: as §1, §2

MALME-3M = assay: NCI-60 cytotoxicity, MALME-3M; conditions: MALME-3M (Melanoma), 72 h
Description: as §1, §2

SK-MEL-2 = assay: NCI-60 cytotoxicity, SK-MEL-2; conditions: SK-MEL-2 (Melanoma), 72 h
Description: as §1, §2

M14 = assay: NCI-60 cytotoxicity, M14; conditions: M14 (Melanoma), 72 h
Description: as §1, §2

SK-MEL-28 = assay: NCI-60 cytotoxicity, SK-MEL-28; conditions: SK-MEL-28 (Melanoma), 72 h
Description: as §1, §2

T-47D = assay: NCI-60 cytotoxicity, T-47D; conditions: T-47D (Breast), 72 h
Description: as §1, §2

MCF7 = assay: NCI-60 cytotoxicity, MCF7; conditions: MCF7 (Breast), 72 h
Description: as §1, §2

U251 = assay: NCI-60 cytotoxicity, U251; conditions: U251 (CNS), 72 h
Description: as §1, §2

RXF 393 = assay: NCI-60 cytotoxicity, RXF 393; conditions: RXF 393 (Renal), 72 h
Description: as §1, §2

ACHN = assay: NCI-60 cytotoxicity, ACHN; conditions: ACHN (Renal), 72 h
Description: as §1, §2

SN12C = assay: NCI-60 cytotoxicity, SN12C; conditions: SN12C (Renal), 72 h
Description: as §1, §2

NCI-H226 = assay: NCI-60 cytotoxicity, NCI-H226; conditions: NCI-H226 (Lung), 72 h
Description: Cells were exposed to compounds in a dose-dependent manner for 72 h. An MTS dye (20 uL per well) was added to each well. Cell viability was determined by tetrazolium conversion to its format an dye. Absorbance was monitored at 490 nm using an automated BMG PHERAstar plate reader (BMG Labtech). Each experiment was performed in duplicate. IC50 values were determined using CalcuSyn software (Biosoft).
Absorbance was monitored at 490 nm using an automated BMG PHERAstar plate reader (BMG Labtech). […] All experiments are repeated in three independent experiments and data represented are the average of triplicate experiments.

Cc1ccc([N+](=O)[O-])cc1S(=O)(=O)N(C)/N=C/c1cnc2ccc(Br)cn12 [Compound 1]
cell viability [1]: spared | IC50 (HL60; Homo sapiens, HL-60): 0.005 µM | IC50 (MOLT-4; Homo sapiens): 0.527 µM | IC50 (CCRF-CEM; Homo sapiens): 3.72 µM | IC50 (NCI-H460; Homo sapiens): 0.01 µM | IC50 (HOP-92; Homo sapiens): 0.094 µM | IC50 (NCI-H552; Homo sapiens): > 10 µM | IC50 (HOP-62; Homo sapiens): 0.008 µM | IC50 (EKVX; Homo sapiens): 1.22 µM | IC50 (KM12; Homo sapiens): 0.006 µM | IC50 (Colo 205; Homo sapiens): 2.18 µM | IC50 (SW-620; Homo sapiens): 0.074 µM | IC50 (NCI/ADR-RES; Homo sapiens): 0.024 µM | IC50 (IGR-OV1; Homo sapiens, IGROV-1): 0.251 µM | IC50 (OVCAR-4; Homo sapiens): 0.403 µM | IC50 (OVCAR-5; Homo sapiens): 0.04 µM | IC50 (PC-3; Homo sapiens): 0.02 µM | IC50 (MALME-3M; Homo sapiens): 0.116 µM | IC50 (SK-MEL-2; Homo sapiens): 0.317 µM | IC50 (M14; Homo sapiens): 0.195 µM | IC50 (SK-MEL-28; Homo sapiens): 1.69 µM | IC50 (T-47D; Homo sapiens, T47D): > 10 µM | IC50 (MCF7; Homo sapiens): 0.238 µM | IC50 (U251; Homo sapiens, U-251): 0.253 µM | IC50 (RXF 393; Homo sapiens): 0.08 µM | IC50 (ACHN; Homo sapiens): 0.092 µM | IC50 (SN12C; Homo sapiens): 0.468 µM

O=C1NC(=NCc2cccs2)S/C1=C\c1ccc2ncccc2c1 [Compound A10]
IC50 (HL60): 1.14 µM | IC50 (MOLT-4): 5.2 µM | IC50 (CCRF-CEM): 2.5 µM | IC50 (NCI-H226): > 10 µM | IC50 (NCI-H460): > 10 µM | IC50 (HOP-92): 6.04 µM | IC50 (NCI-H552): > 10 µM | IC50 (HOP-62): > 10 µM | IC50 (EKVX): > 10 µM | IC50 (KM12): > 10 µM | IC50 (Colo 205): > 10 µM | IC50 (SW-620): > 10 µM | IC50 (NCI/ADR-RES): 3.67 µM | IC50 (IGR-OV1): > 10 µM | IC50 (OVCAR-4): > 10 µM | IC50 (OVCAR-5): > 10 µM | IC50 (PC-3): > 10 µM | IC50 (MALME-3M): > 10 µM | IC50 (SK-MEL-2): > 10 µM | IC50 (SK-MEL-28): > 10 µM | IC50 (T-47D): 6.19 µM | IC50 (U251): 1.92 µM | IC50 (RXF 393): > 10 µM | IC50 (ACHN): 4.46 µM | IC50 (SN12C): > 10 µM

O=C1NCCc2[nH]c(-c3ccncc3)cc21 [Compound A11]
IC50 (HL60): 0.247 µM | IC50 (MOLT-4): 6.98 µM | IC50 (CCRF-CEM): 2.5 µM | IC50 (NCI-H226): > 10 µM | IC50 (HOP-92): 6.4 µM | IC50 (NCI-H552): > 10 µM | IC50 (HOP-62): 9.94 µM | IC50 (EKVX): > 10 µM | IC50 (KM12): 2.28 µM | IC50 (Colo 205): > 10 µM | IC50 (SW-620): 3.93 µM | IC50 (NCI/ADR-RES): 1.44 µM | IC50 (IGR-OV1): > 10 µM | IC50 (OVCAR-4): > 10 µM | IC50 (OVCAR-5): 5.31 µM | IC50 (PC-3): 9.18 µM | IC50 (MALME-3M): 3.05 µM | IC50 (SK-MEL-2): > 10 µM | IC50 (M14): 3.33 µM | IC50 (SK-MEL-28): 9.6 µM | IC50 (T-47D): > 10 µM | IC50 (MCF7): 3.77 µM | IC50 (U251): 4.57 µM | IC50 (RXF 393): 3.47 µM | IC50 (ACHN): > 10 µM
